Source: US20090226527A1, “Particulate-stabilized injectable pharmacutical compositions of posaconazole” (priority 2004, published 2009)
Converted amounts (≈) assume the structure as drawn.

Test system: infectious agents (strains tested)
Experiment: organism not typed
Type: cell-based

CCC(C)n1ncn(-c2ccc(N3CCN(c4ccc(OCC5COC(Cn6cncn6)(c6ccc(Cl)cc6Cl)O5)cc4)CC3)cc2)c1=O (stereo not shown) [Itraconazole]
MIC (Absidia spp, read-out: Geometric Mean MIC): 0.229 µg/mL (≈ 0.325 µM)
MIC (Absidia spp, read-out: MIC[90]): 0.063 to 2 µg/mL (≈ 0.0893 to 2.83 µM)
MIC (Alternaria spp, read-out: Geometric Mean MIC): 0.326 µg/mL (≈ 0.462 µM)
MIC (Alternaria spp, read-out: MIC[90]): 1 µg/mL (≈ 1.42 µM)
MIC (Apophysomyces spp, read-out: Geometric Mean MIC): 0.707 µg/mL (≈ 1 µM)
MIC (Apophysomyces spp, read-out: MIC[90]): 0.031 to 8 µg/mL (≈ 0.0439 to 11.3 µM)
MIC (Arthroderma terrestre, Trichophyton terrestre, read-out: Geometric Mean MIC): 0.25 µg/mL (≈ 0.354 µM)
MIC (Arthroderma terrestre, Trichophyton terrestre, read-out: MIC[90]): 0.25 µg/mL (≈ 0.354 µM)
MIC (Aspergillus flavus, read-out: Geometric Mean MIC): 0.213 µg/mL (≈ 0.302 µM)
MIC (Aspergillus flavus, read-out: MIC[90]): 1 µg/mL (≈ 1.42 µM)
MIC (Aspergillus fumigatus, read-out: Geometric Mean MIC): 0.397 µg/mL (≈ 0.563 µM)
MIC (Aspergillus fumigatus, read-out: MIC[90]): 1 µg/mL (≈ 1.42 µM)
MIC (Aspergillus nidulans, read-out: Geometric Mean MIC): 0.186 µg/mL (≈ 0.264 µM)
MIC (Aspergillus nidulans, read-out: MIC[90]): 0.5 µg/mL (≈ 0.709 µM)
MIC (Aspergillus niger, read-out: Geometric Mean MIC): 0.834 µg/mL (≈ 1.18 µM)
MIC (Aspergillus niger, read-out: MIC[90]): 2 µg/mL (≈ 2.83 µM)
MIC (Aspergillus sydowii, read-out: Geometric Mean MIC): 0.5 µg/mL (≈ 0.709 µM)
MIC (Aspergillus sydowii, read-out: MIC[90]): 0.125 to 2 µg/mL (≈ 0.177 to 2.83 µM)
MIC (Aspergillus terreus, read-out: Geometric Mean MIC): 0.229 µg/mL (≈ 0.325 µM)
MIC (Aspergillus terreus, read-out: MIC[90]): 0.5 µg/mL (≈ 0.709 µM)
MIC (Aspergillus ustus, read-out: Geometric Mean MIC): 0.906 µg/mL (≈ 1.28 µM)
MIC (Aspergillus ustus, read-out: MIC[90]): 0.125 to 2 µg/mL (≈ 0.177 to 2.83 µM)
MIC (Bipolaris spp, read-out: Geometric Mean MIC): 0.25 µg/mL (≈ 0.354 µM)
MIC (Bipolaris spp, read-out: MIC[90]): 0.25 µg/mL (≈ 0.354 µM)
MIC (Bjerkandera adusta, read-out: Geometric Mean MIC): 0.057 µg/mL (≈ 0.0808 µM)
MIC (Bjerkandera adusta, read-out: MIC[90]): 0.063 µg/mL (≈ 0.0893 µM)
MIC (Blastomyces dermatitidis, read-out: Geometric Mean MIC): 0.045 µg/mL (≈ 0.0638 µM)
MIC (Blastomyces dermatitidis, read-out: MIC[90]): 2 µg/mL (≈ 2.83 µM)
MIC (Candida albicans, read-out: Geometric Mean MIC): 0.064 µg/mL (≈ 0.0907 µM)
MIC (Candida albicans, read-out: MIC[90]): 0.25 µg/mL (≈ 0.354 µM)
MIC (Candida dubliniensis, read-out: Geometric Mean MIC): 0.107 µg/mL (≈ 0.152 µM)
MIC (Candida dubliniensis, read-out: MIC[90]): 0.5 µg/mL (≈ 0.709 µM)
MIC (Candida tropicalis, read-out: Geometric Mean MIC): 0.167 µg/mL (≈ 0.237 µM)
MIC (Candida tropicalis, read-out: MIC[90]): 0.5 µg/mL (≈ 0.709 µM)
MIC (Clavispora lusitaniae, Candida lusitaniae, read-out: Geometric Mean MIC): 0.216 µg/mL (≈ 0.306 µM)
MIC (Clavispora lusitaniae, Candida lusitaniae, read-out: MIC[90]): 1 µg/mL (≈ 1.42 µM)
MIC (Coccidioides immitis, read-out: Geometric Mean MIC, Coccidioides immitis): 0.198 µg/mL (≈ 0.281 µM)
MIC (Coccidioides immitis, read-out: MIC[90], Coccidioides immitis): 0.25 µg/mL (≈ 0.354 µM)
MIC (Cryptococcus neoformans, read-out: Geometric Mean MIC): 0.444 µg/mL (≈ 0.629 µM)
MIC (Cryptococcus neoformans, read-out: MIC[90]): 4 µg/mL (≈ 5.67 µM)
MIC (Curvularia spp, read-out: Geometric Mean MIC): 0.5 µg/mL (≈ 0.709 µM)
MIC (Curvularia spp, read-out: MIC[90]): 0.5 µg/mL (≈ 0.709 µM)
MIC (Debaryomyces hansenii, Candida famata, read-out: Geometric Mean MIC): 0.348 µg/mL (≈ 0.493 µM)
MIC (Debaryomyces hansenii, Candida famata, read-out: MIC[90]): 1 µg/mL (≈ 1.42 µM)
MIC (Diutina rugosa, Candida rugosa, read-out: Geometric Mean MIC): 0.196 µg/mL (≈ 0.278 µM)
MIC (Diutina rugosa, Candida rugosa, read-out: MIC[90]): 4 µg/mL (≈ 5.67 µM)
MIC (Dujonia zeylanoides, Candida zeylanoides, read-out: Geometric Mean MIC): 0.105 µg/mL (≈ 0.149 µM)
MIC (Dujonia zeylanoides, Candida zeylanoides, read-out: MIC[90]): 0.031 to 0.5 µg/mL (≈ 0.0439 to 0.709 µM)
MIC (Epidermophyton floccosum, read-out: Geometric Mean MIC): 0.088 µg/mL (≈ 0.125 µM)
MIC (Epidermophyton floccosum, read-out: MIC[90]): 32 µg/mL (≈ 45.3 µM)
MIC (Exophiala dermatidis, read-out: Geometric Mean MIC): 1 µg/mL (≈ 1.42 µM)
MIC (Exophiala dermatidis, read-out: MIC[90]): 1 µg/mL (≈ 1.42 µM)
MIC (Exophiala dermatitidis, Wangiella dermatitidis, read-out: Geometric Mean MIC): 0.5 µg/mL (≈ 0.709 µM)
MIC (Exophiala dermatitidis, Wangiella dermatitidis, read-out: MIC[90]): 0.063 to 1 µg/mL (≈ 0.0893 to 1.42 µM)
MIC (Exophiala jeanselmei, read-out: Geometric Mean MIC): 0.467 µg/mL (≈ 0.662 µM)
MIC (Exophiala jeanselmei, read-out: MIC[90]): 1 µg/mL (≈ 1.42 µM)
MIC (Exophiala moniliae, read-out: Geometric Mean MIC): 0.031 µg/mL (≈ 0.0439 µM)
MIC (Exophiala moniliae, read-out: MIC[90]): 0.031 µg/mL (≈ 0.0439 µM)
MIC (Fonsecae pedrosoi, read-out: Geometric Mean MIC): 0.063 µg/mL (≈ 0.0893 µM)
MIC (Fonsecae pedrosoi, read-out: MIC[90]): 0.008 to 0.5 µg/mL (≈ 0.0113 to 0.709 µM)
MIC (Fusarium spp, read-out: Geometric Mean MIC): 13.3 µg/mL (≈ 18.8 µM)
MIC (Fusarium spp, read-out: MIC[90]): 16 µg/mL (≈ 22.7 µM)
MIC (Hansenula anomala, Pichia anomala, read-out: Geometric Mean MIC): 0.375 µg/mL (≈ 0.531 µM)
MIC (Hansenula anomala, Pichia anomala, read-out: MIC[90]): 1 µg/mL (≈ 1.42 µM)
MIC (Histoplasma capsulatum, read-out: Geometric Mean MIC, Histoplasma capsulatum): 0.018 µg/mL (≈ 0.0255 µM)
MIC (Histoplasma capsulatum, read-out: MIC[90], Histoplasma capsulatum): 0.063 µg/mL (≈ 0.0893 µM)
MIC (Kluyveromyces marxianus, Candida kefyr, read-out: Geometric Mean MIC): 0.188 µg/mL (≈ 0.266 µM)
MIC (Kluyveromyces marxianus, Candida kefyr, read-out: MIC[90]): 0.5 µg/mL (≈ 0.709 µM)
MIC (Kluyveromyces marxianus, read-out: Geometric Mean MIC): 0.07 µg/mL (≈ 0.0992 µM)
MIC (Kluyveromyces marxianus, read-out: MIC[90]): 0.031 to 0.125 µg/mL (≈ 0.0439 to 0.177 µM)
MIC (Lodderomyces parapsilosis, Candida parapsilosis, read-out: Geometric Mean MIC): 0.161 µg/mL (≈ 0.228 µM)
MIC (Lodderomyces parapsilosis, Candida parapsilosis, read-out: MIC[90]): 0.5 µg/mL (≈ 0.709 µM)
MIC (Meyerozyma guilliermondii, Candida guilliermondii, read-out: Geometric Mean MIC): 0.479 µg/mL (≈ 0.679 µM)
MIC (Meyerozyma guilliermondii, Candida guilliermondii, read-out: MIC[90]): 1 µg/mL (≈ 1.42 µM)
MIC (Microsporum audouinii, read-out: Geometric Mean MIC): 0.125 µg/mL (≈ 0.177 µM)
MIC (Microsporum audouinii, read-out: MIC[90]): 0.125 µg/mL (≈ 0.177 µM)
MIC (Microsporum canis, read-out: Geometric Mean MIC): 0.041 µg/mL (≈ 0.0581 µM)
MIC (Microsporum canis, read-out: MIC[90]): 2 µg/mL (≈ 2.83 µM)
MIC (Mucor spp, read-out: Geometric Mean MIC): 2.38 µg/mL (≈ 3.37 µM)
MIC (Mucor spp, read-out: MIC[90]): 16 µg/mL (≈ 22.7 µM)
MIC (Nakaseomyces glabratus, Candida glabrata, read-out: Geometric Mean MIC): 0.853 µg/mL (≈ 1.21 µM)
MIC (Nakaseomyces glabratus, Candida glabrata, read-out: MIC[90]): 4 µg/mL (≈ 5.67 µM)
MIC (Nannizzia fulva, Microsporum fulvum, read-out: Geometric Mean MIC): 4 µg/mL (≈ 5.67 µM)
MIC (Nannizzia fulva, Microsporum fulvum, read-out: MIC[90]): 4 µg/mL (≈ 5.67 µM)
MIC (Nannizzia gypsea, Microsporum gypseum, read-out: Geometric Mean MIC): 0.044 µg/mL (≈ 0.0624 µM)
MIC (Nannizzia gypsea, Microsporum gypseum, read-out: MIC[90]): 0.016 to 0.5 µg/mL (≈ 0.0227 to 0.709 µM)
MIC (Nannizzia persicolor, Microsporum persicolor, read-out: Geometric Mean MIC): 0.5 µg/mL (≈ 0.709 µM)
MIC (Nannizzia persicolor, Microsporum persicolor, read-out: MIC[90]): 0.5 µg/mL (≈ 0.709 µM)
MIC (Paecilomyces spp, read-out: Geometric Mean MIC): 0.64 µg/mL (≈ 0.907 µM)
MIC (Paecilomyces spp, read-out: MIC[90]): 2 µg/mL (≈ 2.83 µM)
MIC (Papiliotrema laurentii, Cryptococcus laurentii, read-out: Geometric Mean MIC): 0.397 µg/mL (≈ 0.563 µM)
MIC (Papiliotrema laurentii, Cryptococcus laurentii, read-out: MIC[90]): 0.25 to 0.5 µg/mL (≈ 0.354 to 0.709 µM)
MIC (Paracoccidioides brasiliensis, read-out: Geometric Mean MIC, Paracoccidioides brasiliensis): 0.025 µg/mL (≈ 0.0354 µM)
MIC (Paracoccidioides brasiliensis, read-out: MIC[90], Paracoccidioides brasiliensis): 0.063 µg/mL (≈ 0.0893 µM)
MIC (Penicillium spp, read-out: Geometric Mean MIC): 0.853 µg/mL (≈ 1.21 µM)
MIC (Penicillium spp, read-out: MIC[90]): 2 µg/mL (≈ 2.83 µM)
MIC (Pichia kudriavzevii, Candida krusei, read-out: Geometric Mean MIC): 0.576 µg/mL (≈ 0.816 µM)
MIC (Pichia kudriavzevii, Candida krusei, read-out: MIC[90]): 1 µg/mL (≈ 1.42 µM)
MIC (Pleurothecium obovoideum, Ramichloridium obovoideum, read-out: Geometric Mean MIC): 0.016 µg/mL (≈ 0.0227 µM)
MIC (Pleurothecium obovoideum, Ramichloridium obovoideum, read-out: MIC[90]): 0.016 µg/mL (≈ 0.0227 µM)
MIC (Rhizomucor spp, read-out: Geometric Mean MIC): 0.016 µg/mL (≈ 0.0227 µM)
MIC (Rhizomucor spp, read-out: MIC[90]): 0.016 µg/mL (≈ 0.0227 µM)
MIC (Rhizopus spp, read-out: Geometric Mean MIC): 3.28 µg/mL (≈ 4.65 µM)
MIC (Rhizopus spp, read-out: MIC[90]): 16 µg/mL (≈ 22.7 µM)
MIC (Saccharomyces cerevisiae, read-out: Geometric Mean MIC): 0.418 µg/mL (≈ 0.592 µM)
MIC (Saccharomyces cerevisiae, read-out: MIC[90]): 2 µg/mL (≈ 2.83 µM)
MIC (Scedosporium apiospermum, read-out: Geometric Mean MIC): 1.34 µg/mL (≈ 1.9 µM)
MIC (Scedosporium apiospermum, read-out: MIC[90]): 32 µg/mL (≈ 45.3 µM)
MIC (Scedosporium boydii, Pseudallescheria boydii, read-out: Geometric Mean MIC): 0.506 µg/mL (≈ 0.717 µM)
MIC (Scedosporium boydii, Pseudallescheria boydii, read-out: MIC[90]): 1 µg/mL (≈ 1.42 µM)
MIC (Sporothrix schenckii, read-out: Geometric Mean MIC): 0.302 µg/mL (≈ 0.428 µM)
MIC (Sporothrix schenckii, read-out: MIC[90]): 0.5 µg/mL (≈ 0.709 µM)
MIC (Trichophyton mentagrophytes, read-out: Geometric Mean MIC): 0.041 µg/mL (≈ 0.0581 µM)
MIC (Trichophyton mentagrophytes, read-out: MIC[90]): 0.25 µg/mL (≈ 0.354 µM)
MIC (Trichophyton rubrum, Trichophyton raubitschekii, read-out: Geometric Mean MIC): 0.25 µg/mL (≈ 0.354 µM)
MIC (Trichophyton rubrum, Trichophyton raubitschekii, read-out: MIC[90]): 0.25 µg/mL (≈ 0.354 µM)
MIC (Trichophyton rubrum, read-out: Geometric Mean MIC): 0.074 µg/mL (≈ 0.105 µM)
MIC (Trichophyton rubrum, read-out: MIC[90]): 0.25 µg/mL (≈ 0.354 µM)
MIC (Trichophyton soudanense, read-out: Geometric Mean MIC): 4 µg/mL (≈ 5.67 µM)
MIC (Trichophyton soudanense, read-out: MIC[90]): 4 µg/mL (≈ 5.67 µM)
MIC (Trichophyton tonsurans, read-out: Geometric Mean MIC): 0.036 µg/mL (≈ 0.051 µM)
MIC (Trichophyton tonsurans, read-out: MIC[90]): 0.063 µg/mL (≈ 0.0893 µM)
MIC (Trichosporon spp, read-out: Geometric Mean MIC): 1.12 µg/mL (≈ 1.59 µM)
MIC (Trichosporon spp, read-out: MIC[90]): 0.5 to 2 µg/mL (≈ 0.709 to 2.83 µM)
